Laboratory results as given in PMC3275370 (The Journal of Cell Biology, 2012).

How the values were obtained:
[1] = tested on: mRNA export block; format: cell-based
[2] = tested on: NS1; format: cell-based, influenza virus
[3] = tested on: VSV-GFP (Indiana strain); format: cell-based, vesicular stomatitis virus
[4] = tested on: A/WSN/1933; format: cell-based, influenza virus
[5] = tested on: VSV M protein; format: cell-based, vesicular stomatitis virus
[6] = tested on: MDCK cells
[7] = tested on: HBECs; experiment: Measurements of cellular UMP, UDP and UTP levels by LC-MS/MS; format: cell-based, human; details: HBECs treated with compound

Row | SMILES | poly(A)+ RNA distribution in influenza virus-infected cells [1] | reversal of NS1 inhibition of host gene expression (luciferase activity) [2] | antiviral effect on VSV [3] | antiviral effect on influenza virus [4] | inhibition of gene expression by M protein [5] | NS1-mediated mRNA export block in absence of virus [1] | VSV replication [3] | cytotoxicity [6] | influenza virus replication [4] | UMP and UDP pools [7] | UTP levels [7]
1 | CCOc1ccc(-c2cc(C(=O)O)c3cc(Cl)ccc3n2)cc1 [Compound 1, 6-chloro-2-(4-ethoxyphenyl)quinoline-4-carboxylic acid] | normal distribution of mRNA in the nucleus and in the cytoplasm | reverted the inhibition of host gene expression by NS1 |  |  |  |  |  |  |  |  | 
2 | Cc1ccc(-c2cc(C(=O)O)c3cc(Cl)ccc3n2)cc1 [Compound 1-10, 6-chloro-2-p-tolylquinoline-4-carboxylic acid] |  |  | no antiviral effect | no antiviral effect |  |  |  |  |  |  | 
3 | O=C(O)c1cc(-c2ccc(Oc3ccccc3)cc2)nc2ccc(F)cc12 [Compound 1-14, 6-fluoro-2-(4-phenoxyphenyl)quinoline-4-carboxylic acid] | normal distribution of mRNA in the nucleus and in the cytoplasm | reverted |  |  | reverted | released | down-regulated | not cytotoxic | virus replication was inhibited | down-regulated to a lesser extent | reduced UTP levels
